Data on eleven compounds can be found in ChEMBL document CHEMBL1201862, “PubChem BioAssay data set” (2004).

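Compound exposure: 48 hours, 5 concentrations, 96-well plates. At the GI50, growth is halved.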 The source made the active and inactive calls. Rule as the data show it: active = GI50 up to about 1.1 µM and inactive = higher.

Test systems include TK-10; UO-31; HCT-15; MDA-MB-435; SF-268; SF-539; COLO 205; RXF 393; IGROV-1; MCF7; CAKI-1; NCI-H23; NCI-H226; HT-29; 786-0; PC-3; A549; SK-MEL-28; SN12C; SNB-75.
Holding throughout (experiment): NCI tumour cell line growth inhibition, 48 h

For the compound `O=C(O)c1nc2ccc(Cl)cc2[nH]c1=O`, the GI50 in the assay on TK-10 is > 100 µM (inactive); in the assay on UO-31, 46.8 µM (inactive); in the assay on HCT-15, over 100 µM; in the assay on MDA-MB-435, > 100 µM (inactive); in the assay on SF-268, > 100 µM (inactive); with SF-539 it was > 100 µM (inactive). Moreover, the GI50 in the assay on COLO 205, in the assay with RXF 393, with IGROV-1, in the assay on MCF7, with CAKI-1 and in the assay with NCI-H23 was > 100 µM (inactive) each time. Also, the GI50 with NCI-H226, in the assay with HT-29, in the assay on 786-0, in the assay on PC-3, in the assay with A549 and in the assay with SK-MEL-28 was > 100 µM (inactive) each time. The GI50 in the assay with SN12C is > 100 µM (inactive).
For the compound `OC1(c2ccccc2)C2CC=CC2C1(c1ccccc1)c1ccccc1` (stereo not drawn), the GI50 with TK-10 was 29.6 µM (inactive); in the assay with UO-31, 31.1 µM (inactive); in the assay with HCT-15 it was 28.6 µM; with SNB-75, 34.1 µM (inactive); in the assay on MDA-MB-435, 20.7 µM (inactive); in the assay on SF-268 it was 31 µM (inactive). For the same compound, the GI50 with SF-539 is 77.1 µM (inactive); in the assay with COLO 205, 18.4 µM (inactive); in the assay with RXF 393, 16.7 µM (inactive); with IGROV-1, 20.1 µM (inactive); in the assay with MCF7 it was 26.4 µM (inactive); with CAKI-1, 17.1 µM (inactive). Also, the GI50 with NCI-H23 was 41.9 µM (inactive); in the assay on HT-29, 18.4 µM (inactive); with 786-0, 61.7 µM (inactive); in the assay with PC-3 it was 42.6 µM (inactive); with A549, 25.2 µM (inactive); in the assay with SK-MEL-28 it was 40.1 µM (inactive). Further, in the assay with SN12C, the GI50 is 30.1 µM (inactive).
As for `COP(=O)(OC)C12CCOCCN1c1ccccc1C2=O` (stereo not drawn), the GI50 with TK-10 was > 100 µM (inactive); in the assay on UO-31, > 100 µM (inactive); in the assay with HCT-15 it was over 100 µM; in the assay with SNB-75, > 100 µM (inactive); in the assay with MDA-MB-435 it was > 100 µM (inactive); in the assay with SF-268, > 100 µM (inactive). Also, the GI50 with SF-539, in the assay with COLO 205, with IGROV-1, in the assay on MCF7, in the assay on CAKI-1 and with NCI-H23 was > 100 µM (inactive) throughout. In addition, the GI50 with NCI-H226, in the assay with HT-29, with 786-0, with PC-3, in the assay with A549 and in the assay on SK-MEL-28 was > 100 µM (inactive) in each case. Moreover, in the assay with SN12C, the GI50 is > 100 µM (inactive).
`CN1c2ccccc2C2=C(c3ccccc3)CC[C@@H](C(=O)N3C4CC5CC[C@@]4(CS3(=O)=O)C5(C)C)[C@@H]21` (stereo partly drawn): the GI50 is > 100 µM (inactive) in the assay on TK-10; > 100 µM (inactive) in the assay with UO-31; over 100 µM in the assay on HCT-15; > 100 µM (inactive) in the assay with SNB-75; > 100 µM (inactive) in the assay with MDA-MB-435; > 100 µM (inactive) in the assay on SF-268. In addition, the GI50 in the assay with SF-539, with COLO 205, with IGROV-1, in the assay with MCF7, in the assay with CAKI-1 and in the assay on NCI-H23 was > 100 µM (inactive) each time. The GI50 in the assay on NCI-H226 was > 100 µM (inactive); with HT-29, > 100 µM (inactive); with 786-0 it was > 100 µM (inactive); in the assay with PC-3 it was 4.1 µM (inactive); in the assay with A549 it was > 100 µM (inactive); in the assay on SK-MEL-28, > 100 µM (inactive). The GI50 with SN12C is > 100 µM (inactive).
In the case of `COc1c(F)c(F)c(C(=O)/C=C2\Nc3ccccc3NC2=O)c(F)c1F`, the GI50 in the assay on TK-10 is > 10 µM (inactive); with HCT-15 it was over 10 µM; in the assay on SNB-75, 2.25 µM (inactive); in the assay on MDA-MB-435, > 10 µM (inactive); with SF-268 it was 9.1 µM (inactive); in the assay with COLO 205 it was > 10 µM (inactive). Besides, the GI50 in the assay with RXF 393 is 9.51 µM (inactive); with IGROV-1, 7.33 µM (inactive); in the assay with MCF7 it was > 10 µM (inactive); with CAKI-1, > 10 µM (inactive); in the assay on NCI-H23, > 10 µM (inactive); in the assay with HT-29, 6.98 µM (inactive). Moreover, the GI50 with 786-0 is 2.32 µM (inactive); in the assay on PC-3 it was 7.57 µM (inactive); in the assay with A549 it was 9.16 µM (inactive); in the assay with SK-MEL-28 it was 6.81 µM (inactive); with SN12C, > 10 µM (inactive).
With `Cc1nn(C(=O)Cc2ccccc2)c2c1C(c1ccc([N+](=O)[O-])cc1)SC(=N)N2` (stereo not drawn), the GI50 was > 100 µM (inactive) in the assay on TK-10; over 100 µM in the assay on HCT-15; > 100 µM (inactive) in the assay on MDA-MB-435; > 100 µM (inactive) in the assay with SF-268; > 100 µM (inactive) in the assay with SF-539; > 100 µM (inactive) with COLO 205. In addition, the GI50 in the assay on IGROV-1, in the assay on MCF7, with CAKI-1, in the assay on NCI-H23, with HT-29 and with 786-0 was > 100 µM (inactive) in each case. The GI50 in the assay with PC-3, with A549, in the assay on SK-MEL-28 and with SN12C was > 100 µM (inactive) each time.
In the case of `CCOC(=O)Nn1cnnc1C`, the GI50 in the assay on TK-10 is > 100 µM (inactive); in the assay on UO-31 it was > 100 µM (inactive); with HCT-15 it was over 100 µM; in the assay with MDA-MB-435, > 100 µM (inactive); in the assay with SF-539, > 100 µM (inactive); with COLO 205, > 100 µM (inactive). The GI50 in the assay on RXF 393, in the assay on IGROV-1, in the assay with MCF7, in the assay with CAKI-1, with NCI-H23 and in the assay with NCI-H226 was > 100 µM (inactive) throughout. Moreover, the GI50 in the assay on HT-29, in the assay on 786-0, in the assay with PC-3, with A549 and in the assay with SN12C was > 100 µM (inactive) throughout.
For `CN(C)CCNc1ccc([N+](=O)[O-])c2sc3ccccc3c(=O)c12`, the GI50 was 12.3 µM (inactive) with TK-10; 4.34 µM (inactive) in the assay on UO-31; 3.67 µM in the assay with HCT-15; 4.68 µM (inactive) with SNB-75; 5.19 µM (inactive) with MDA-MB-435; 4.21 µM (inactive) in the assay on SF-268. The GI50 with SF-539 is 3.65 µM (inactive); in the assay on COLO 205 it was 2.86 µM (inactive); with RXF 393, 14.4 µM (inactive); in the assay with IGROV-1, 1.73 µM (inactive); with MCF7 it was 3.41 µM (inactive); in the assay with NCI-H23, 4.16 µM (inactive). The GI50 is 6.11 µM (inactive) in the assay with NCI-H226; 2.57 µM (inactive) with HT-29; 3.38 µM (inactive) in the assay with 786-0; 4.11 µM (inactive) in the assay on PC-3; 3.83 µM (inactive) with A549; 7.08 µM (inactive) with SK-MEL-28. The GI50 in the assay with SN12C is 4.46 µM (inactive).
For `CCOC(=O)N(C)C1(c2ccccc2)CCN(CCCC(=O)c2ccc(F)cc2)CC1`, the GI50 is 45.3 µM (inactive) in the assay with TK-10; 0.0148 µM (active) with UO-31; 35.1 µM in the assay on HCT-15; 23.9 µM (inactive) in the assay with MDA-MB-435; 90.4 µM (inactive) in the assay on SF-268; 28.6 µM (inactive) in the assay with SF-539. Further, the GI50 was 15.4 µM (inactive) in the assay on COLO 205; 57.8 µM (inactive) in the assay on RXF 393; > 100 µM (inactive) with IGROV-1; 33.4 µM (inactive) with MCF7; 2.16 µM (inactive) in the assay with CAKI-1; 68.7 µM (inactive) in the assay with NCI-H23. Further, the GI50 is 35.4 µM (inactive) in the assay on NCI-H226; 19.7 µM (inactive) with HT-29; 33 µM (inactive) in the assay with 786-0; 36.8 µM (inactive) in the assay with PC-3; 92.3 µM (inactive) in the assay with A549; 21 µM (inactive) in the assay on SK-MEL-28. For the same compound, in the assay on SN12C, the GI50 was 83.4 µM (inactive).
Regarding `NC(=S)NC/C=C/Cl`, the GI50 was > 100 µM (inactive) in the assay on TK-10; > 100 µM (inactive) with UO-31; over 100 µM in the assay on HCT-15; > 100 µM (inactive) with SNB-75; > 100 µM (inactive) with MDA-MB-435; > 100 µM (inactive) in the assay on COLO 205. Besides, the GI50 in the assay on RXF 393, with IGROV-1, with MCF7, in the assay with CAKI-1, in the assay with NCI-H23 and with NCI-H226 was > 100 µM (inactive) throughout. Also, the GI50 in the assay with HT-29, in the assay on 786-0, in the assay on PC-3 and in the assay on A549 was > 100 µM (inactive) in each case.
In the case of `C[C@]12CC(c3ccccc3O1)C(C(=O)NC13CC4CC(CC(C4)C1)C3)C(=O)N2` (stereo partly drawn), the GI50 with TK-10 is 70.1 µM (inactive); in the assay with UO-31 it was 20 µM (inactive); with HCT-15, 25.9 µM; in the assay on SNB-75, 27.5 µM (inactive); in the assay on MDA-MB-435, 26.2 µM (inactive); in the assay with SF-268 it was 32.1 µM (inactive). Also, the GI50 is 15.6 µM (inactive) with COLO 205; 25.6 µM (inactive) in the assay with RXF 393; 31.4 µM (inactive) in the assay with IGROV-1; 39.5 µM (inactive) in the assay with MCF7; 38.6 µM (inactive) with CAKI-1; 23.7 µM (inactive) in the assay on NCI-H23. The GI50 in the assay with NCI-H226 was 23.6 µM (inactive); in the assay with HT-29, 16.1 µM (inactive); with 786-0, 18.3 µM (inactive); in the assay on PC-3, 32.1 µM (inactive); in the assay on A549, 21.1 µM (inactive); in the assay with SK-MEL-28, 28.3 µM (inactive).
